Converted amounts (≈) assume the structure as drawn.

Assay [1] has as its system Staphylococcus aureus. Put plainly: Antimicrobial activity against linezolid-,erythromycin-resistant Staphylococcus aureus A7820 with G2576U mutation at 23s rRNA. The format is functional.
In a further assay the test system is Enterococcus faecium. Kind of assay: Antimicrobial activity against linezolid-resistant Enterococcus faecium A6349 expressing VanA gene. The assay is classed as functional.
The nature of assay [2]: Inhibition of 50S ribosomal subunit purified from Staphylococcus aureus ATCC 29213 assessed as inhibition of translation using in vitro transcribed mRNA encoding firefly luciferase.
Assay [3] concerns Staphylococcus aureus. Kind of assay: Antimicrobial activity against Staphylococcus aureus ATCC 29213. The format is functional.
The test system of assay [4] is Enterococcus faecalis. Put plainly: Antimicrobial activity against linezolid-resistant Enterococcus faecalis P5. The assay is classed as functional.
Assay [5] is described as follows: Selectivity ratio of IC50 for […] to IC50 for Staphylococcus aureus ATCC 29213 50S ribosomal subunit.
Assay [6] in a line: Inhibition of 50S ribosomal subunit purified from linezolid-,erythromycin-resistant Staphylococcus aureus A7820 with G2576U mutation in 23s rRNA assessed as inhibition of translation using in vitro transcribed mRNA encoding firefly luciferase.
The subject of assay [7] is Enterococcus faecalis. Kind of assay: Antimicrobial activity against Enterococcus faecalis ATCC 29212. The format is functional.
In assay [8] the target is Bacterial 70S ribosome. Put plainly: Displacement of [3H]puromycin from 70S ribosomal complex in Staphylococcus aureus ATCC 29213 by competitive binding assay. On the technique in general: Loss of bound radioactivity is the signal in a displacement assay; it reports binding, not function.
The target in assay [9] is Bacterial 70S ribosome. Put plainly: Displacement of [3H]chloramphenicol from 70S ribosomal complex in Staphylococcus aureus ATCC 29213 by competitive binding assay.

Usually MIC stands for the least concentration at which growth counts as inhibited. As usually defined, the IC50 is the point on the concentration scale where inhibition reaches its midpoint. Take `CC(=O)NC[C@H]1CN(c2ccc(-c3ccc(Cn4ccnn4)cc3)c(F)c2)C(=O)O1`: the MIC turned out to be 1 µg/mL (≈ 2.44 µM) with Staphylococcus aureus [1]; 1 µg/mL (≈ 2.44 µM) in the assay on Enterococcus faecium; 0.5 µg/mL (≈ 1.22 µM) against Staphylococcus aureus [3]; 1 µg/mL (≈ 2.44 µM) in the assay with Enterococcus faecalis [4]; 0.5 µg/mL (≈ 1.22 µM) against Enterococcus faecalis [7]. Besides, the IC50 in assay [2] was found to be 0.13 µM; in assay [6], 0.21 µM. Also, in assay [5], the ratio was over 100.
With `CC(=O)NC[C@H]1CN(c2ccc(-c3ccc(CNCc4cnn[nH]4)cc3)c(F)c2)C(=O)O1` [RADEZOLID], the minimum inhibitory concentration (MIC) is 8 µg/mL (≈ 18.2 µM) against Staphylococcus aureus [1]; 0.5 µg/mL (≈ 1.14 µM) with Enterococcus faecium; 1 µg/mL (≈ 2.28 µM) against Staphylococcus aureus [3]; 1 µg/mL (≈ 2.28 µM) against Enterococcus faecalis [4]; 0.25 µg/mL (≈ 0.57 µM) in the assay with Enterococcus faecalis [7]. Further, the IC50 in assay [2] worked out at 0.02 µM; in assay [6], 0.03 µM. For the same compound, in assay [5], the ratio was over 100.
With `CC(=O)NC[C@H]1CN(c2ccc(-c3ccc(CNC(=O)/C=C/c4c(C)[nH]c(=O)[nH]c4=O)cc3)c(F)c2)C(=O)O1`, the MIC against Staphylococcus aureus [1] was determined as 8 µg/mL (≈ 14.9 µM); in the assay on Enterococcus faecium, 1 µg/mL (≈ 1.87 µM); in the assay with Staphylococcus aureus [3] it was 0.25 µg/mL (≈ 0.467 µM); against Enterococcus faecalis [4], 16 µg/mL (≈ 29.9 µM); in the assay with Enterococcus faecalis [7], 1 µg/mL (≈ 1.87 µM). In addition, the IC50 in [2] turned out to be 0.09 µM; in assay [6], 0.03 µM. Besides, in [5], the ratio was determined as 17.
Consider `CC(=O)NC[C@H]1CN(c2ccc(N3CCOCC3)c(F)c2)C(=O)O1` [LINEZOLID], for which the MIC against Staphylococcus aureus [1] came to 64 µg/mL (≈ 190 µM); in the assay with Enterococcus faecium, 16 µg/mL (≈ 47.4 µM); in the assay with Enterococcus faecalis [4] it was 32 µg/mL (≈ 94.9 µM). Besides, the IC50 on Bacterial 70S ribosome [8] was determined as 920 µM; in [2] it was 0.9 µM; on Bacterial 70S ribosome [9] it was 1380 µM; in assay [6], 8.4 µM. Besides, the ratio in assay [5] is over 100.
Consider `CC(=O)NC[C@H]1CN(c2ccc(-c3ccc(CNC(=N)N)cc3)c(F)c2)C(=O)O1`, for which the MIC in the assay with Staphylococcus aureus [1] came to 8 µg/mL (≈ 20 µM); with Enterococcus faecium, 2 µg/mL (≈ 5.01 µM); against Staphylococcus aureus [3], 2 µg/mL (≈ 5.01 µM); against Enterococcus faecalis [4], 8 µg/mL (≈ 20 µM); against Enterococcus faecalis [7], 2 µg/mL (≈ 5.01 µM). Moreover, the IC50 was 8.7 µM at Bacterial 70S ribosome [8], at most 0.02 µM in assay [2], 50 µM on Bacterial 70S ribosome [9] and 0.08 µM in assay [6]. In assay [5], the ratio was over 100.
`O=C(N[C@H](CO)[C@H](O)c1ccc([N+](=O)[O-])cc1)C(Cl)Cl` [CHLORAMPHENICOL]: the MIC against Staphylococcus aureus [1] amounted to 64 µg/mL (≈ 198 µM); with Enterococcus faecium, 24 µg/mL (≈ 74.3 µM); against Staphylococcus aureus [3], 8 µg/mL (≈ 24.8 µM); in the assay with Enterococcus faecalis [4], 32 µg/mL (≈ 99 µM); in the assay with Enterococcus faecalis [7], 8 µg/mL (≈ 24.8 µM). Besides, the IC50 in [2] came out at 7.8 µM; on Bacterial 70S ribosome [9], 0.43 µM; in [6] it was 54 µM. Also, in [5], the ratio worked out at 25.
Consider `CC(=O)NC[C@H]1CN(c2ccc(-c3ccc(CNCC(N)=O)cc3)c(F)c2)C(=O)O1`, for which the MIC turned out to be 8 µg/mL (≈ 19.3 µM) with Staphylococcus aureus [1]; 1 µg/mL (≈ 2.41 µM) with Enterococcus faecium; 4 µg/mL (≈ 9.65 µM) against Staphylococcus aureus [3]; 8 µg/mL (≈ 19.3 µM) with Enterococcus faecalis [4]; 0.5 µg/mL (≈ 1.21 µM) in the assay with Enterococcus faecalis [7]. Moreover, the IC50 in assay [2] is at most 0.02 µM. In addition, the ratio in [5] is over 50.
On to `CC(=O)NC[C@H]1CN(c2ccc(-c3ccc(CNCCCF)cc3)c(F)c2)C(=O)O1`, for which the MIC against Staphylococcus aureus [1] stood at 8 µg/mL (≈ 19.2 µM); in the assay with Enterococcus faecium, 1 µg/mL (≈ 2.4 µM); in the assay with Staphylococcus aureus [3] it was 1 µg/mL (≈ 2.4 µM); with Enterococcus faecalis [4], 2 µg/mL (≈ 4.79 µM); with Enterococcus faecalis [7], 0.5 µg/mL (≈ 1.2 µM). Besides, the half-maximal inhibitory concentration (IC50) is at most 0.02 µM in assay [2], 45 µM on Bacterial 70S ribosome [9] and 0.06 µM in [6]. Moreover, the ratio in assay [5] was over 100.
On Bacterial 70S ribosome [8], `COc1ccc(C[C@H](N)C(=O)N[C@H]2[C@@H](O)[C@H](n3cnc4c(N(C)C)ncnc43)O[C@@H]2CO)cc1` [PUROMYCIN] had an IC50 of 0.9 µM.
Turning to `CS(=O)(=O)c1ccc([C@@H](O)[C@@H](CF)NC(=O)C(Cl)Cl)cc1` [FLORFENICOL], the minimum inhibitory concentration (MIC) was 64 µg/mL (≈ 179 µM) against Staphylococcus aureus [1]; 16 µg/mL (≈ 44.7 µM) in the assay with Enterococcus faecium; 8 µg/mL (≈ 22.3 µM) in the assay with Staphylococcus aureus [3]; 16 µg/mL (≈ 44.7 µM) against Enterococcus faecalis [4]; 4 µg/mL (≈ 11.2 µM) with Enterococcus faecalis [7]. In addition, the values for the IC50 (in assay [2]; at Bacterial 70S ribosome [9]; in [6]) were 0.7 µM, 20 µM and 16.4 µM, respectively. Also, in [5], the ratio is over 100.
For `CC(=O)NC[C@H]1CN(c2ccc(-c3ccc(CN)cc3)c(F)c2)C(=O)O1`, the MIC with Staphylococcus aureus [1] was found to be 8 µg/mL (≈ 22.4 µM); against Enterococcus faecium it was 1 µg/mL (≈ 2.8 µM); against Staphylococcus aureus [3], 4 µg/mL (≈ 11.2 µM); against Enterococcus faecalis [4], 8 µg/mL (≈ 22.4 µM); with Enterococcus faecalis [7], 0.5 µg/mL (≈ 1.4 µM). Besides, the concentration for half-maximal inhibition (IC50) in assay [2] is at most 0.02 µM; on Bacterial 70S ribosome [9] it was 58 µM. Further, the ratio in assay [5] was over 100.
Take `CSC[S@@+]([O-])CC(CO)NC(=O)/C=C/c1c(C)[nH]c(=O)[nH]c1=O` (some centres undefined) [SPARSOMYCIN]: the IC50 in assay [2] was at most 0.02 µM. In assay [5], the ratio came to 7.
In the case of `CC(=O)NC[C@H]1CN(c2ccc(-c3ccc(Cn4ncnn4)cc3)c(F)c2)C(=O)O1`, the MIC in the assay with Staphylococcus aureus [1] turned out to be 1 µg/mL (≈ 2.44 µM); against Enterococcus faecium, 0.5 µg/mL (≈ 1.22 µM); with Staphylococcus aureus [3], 0.5 µg/mL (≈ 1.22 µM); in the assay with Enterococcus faecalis [4], 1 µg/mL (≈ 2.44 µM); with Enterococcus faecalis [7] it was 0.25 µg/mL (≈ 0.609 µM). In assay [2], the IC50 is 0.06 µM. Further, the ratio in [5] was found to be 23.

Source of the values: ChEMBL document CHEMBL1275513, “R chi-01, a new family of oxazolidinones that overcome ribosome-based linezolid resistance” (Antimicrob Agents Chemother, 2008).
